Assay results as given in a melting point compilation (Tetko et al.; mined from patent text by program, amines drawn as free bases though some values may be those of a salt).

Row | SMILES | melting point
1 | C=CCOCc1[nH]c(=O)c(CC(C)C)[n+]([O-])c1N | 149 to 151 °C
2 | O=c1[nH]c2cc(Cl)cc([N+](=O)[O-])c2[nH]c1=O | 315 to 317 °C
3 | COCCNC(=O)c1cccc(-c2ccc3c(c2)N(c2ccc(Cl)cc2Cl)CC3)c1 | 119 to 120 °C
4 | CCCCCCCCCCCCCCOc1ccc(CC(=O)OC)cc1Cl | 24 to 25 °C
5 | O=c1[nH]c2ccc(C(F)(F)F)cc2c(-c2cc(Cl)ccc2O)c1NS(=O)(=O)c1ccccc1 | 262 to 265 °C
6 | O=C(NCCCCCCCNC(=O)c1ccc(OC(F)(F)C(F)Cl)cc1)c1ccc(OC(F)(F)C(F)Cl)cc1 (configuration not stated) | 153 to 154 °C
7 | CCCCc1nc2c(N)nc3c(c2n1CCCCN)CCCC3 | 63 to 67 °C
8 | CCCc1nc(C(=O)C(C)C)c(C#N)n1Cc1ccc(-c2ccccc2-c2nnnn2C(c2ccccc2)(c2ccccc2)c2ccccc2)cc1 | 133 to 134 °C
9 | COc1ccccc1NC(=O)Nc1nc(Nc2ccccc2-c2ccccc2)nc(N2Cc3ccccc3CC2C(=O)O)n1 (configuration not stated) | 138 to 145 °C
10 | COc1ccc(NC(=S)NCC(OC)OC)cc1 | 215 to 217 °C
11 | O=S(=O)(Cl)c1ccc(-c2cccc(F)c2)s1 | 75 to 84 °C
12 | O=C(O)C1CCCN(C(=O)c2cccc(C(=O)C3CCC4(CCNCC4)CC3)c2)C1 (configuration not stated) | 146 to 148 °C
13 | C#Cc1cc([C@@H](C)NC(=O)Nc2ccc(C(C)(C)C)cc2)ccc1NS(C)(=O)=O | 88.4 to 89.4 °C
14 | CN(C)c1ccccc1CC(=O)N1C[C@H]2[C@@H](C1)C(c1ccccc1)(c1ccccc1)CC[C@@H]2O | 160 °C
15 | CC12CCC3c4ccc(Cl)cc4CCC3C1CCC2NCc1cccc(C(F)(F)F)c1 (configuration not stated) | 97 to 101 °C
16 | COc1cccc(C(=O)P2(=O)Oc3ccccc3-c3ccccc32)c1 (configuration not stated) | 116 to 118 °C

Row | SMILES | melting point
17 | O=C1CCc2cc(C3=NNC(=O)C4CCC34)ccc2N1 (configuration not stated) | 349 to 353 °C
18 | CSc1nc2nc3cc(C(F)(F)F)ccc3cc2[nH]1 | > 270 °C
19 | O=C1N(Cc2ccc(-c3noc(C(F)(F)F)n3)cc2)c2ccccc2C12COc1cc3c(cc12)CCO3 (configuration not stated) | 178 to 179 °C
20 | Nc1ccc(CCc2ccc(Cl)c(Cl)c2)cc1 | 68 to 70 °C
21 | CS(=O)(=O)c1ccc(-c2cn[nH]c(=O)c2-c2ccc(F)cc2)cc1 | 255 to 256 °C
22 | CC1CC(=O)NN=C1c1ccc(-n2cnc3c2CCCC3)cc1 (configuration not stated) | 199 to 200 °C
23 | O=C(COc1ccc(C(=O)C(=O)O)cc1)NC1CCCCCCC1 | 139 to 140 °C
24 | Nc1nc(-c2ccc(Cl)cc2)nc(N2CCCC2)n1 | 217 to 219 °C
25 | CC(=O)Nc1ccc(Sc2c(NCc3ccccc3)cc(C(=O)O)cc2S(N)(=O)=O)cc1 | 255 to 258 °C
26 | O=C(O)C(Cl)=C(Cl)C(=O)N(Cc1ccco1)Cc1ccco1 | 149 °C
27 | c1ccc(-c2cc(NC3=NCCN3)n(-c3ccccc3)n2)cc1 | 228 to 230 °C
28 | CC(C)(C)NC(=O)[C@@H]1CC(=O)CN1C(=O)OC(C)(C)C | 147 to 149 °C
29 | CN1CCN(c2nc(=NC(=O)NC(C)(C)C)ss2)CC1 | 169 to 172 °C
30 | COc1cc(OC)c2c(=O)[nH]c(-c3ccc(OCCNC(C)C)c(-c4ccc(S(C)(=O)=O)cc4)n3)nc2c1 | 114 to 116 °C
31 | CCCN1CCC[C@@H]2c3cccc(O)c3OC[C@H]21 (relative stereo) | 111 to 114 °C
32 | CSC(=NC#N)N1CCc2nc(N)sc2C1 | 152 to 155 °C

Now from value to compound:

Row | melting point | SMILES
33 | 219 to 220 °C | O=C(CC12CC3CC(CC(C3)C1)C2)Nc1c(Cl)ccc2ncccc12
34 | 182 to 183 °C | C[C@@H](n1cnc2ccc(Br)cc2c1=O)[C@](O)(Cn1cncn1)c1ccc(F)cc1F
35 | 97 to 98 °C | Cc1ccccc1N(Cc1cccnc1)S(C)(=O)=O
36 | 39 to 40 °C | CCOC(=O)CCCCCCCC1CC2=C(C1)C(=O)C(OC)=C(OC)C2=O
37 | 142 to 143 °C | CC(C)S(=O)(=O)c1cc(C#N)c(N)c(OCCCS(C)(=O)=O)c1
38 | 51 to 53 °C | Cc1nccn1Cc1ccccc1
39 | 100 to 103 °C | CCCCCCCCCCCCCCOc1cccc(CC(=O)Nc2ccccc2CO)c1
40 | 155 to 156 °C | O=C(O)c1coc(Cc2ccccc2)n1
41 | 124 to 126 °C | Cc1nc(N2CCCC(CCc3ccccc3)C2=O)sc1C(=O)NCc1ccccc1 (configuration not stated)
42 | 127 to 129 °C | COc1cc(CN2CCc3c(sc(N)c3C(=O)c3ccc4ccccc4c3)C2)cc(OC)c1OC
43 | 128 to 130 °C | NS(=O)(=O)c1ccccc1CSc1ncccn1
44 | 88 °C | CC(C)(C)OC(=O)CNc1ccccc1C(=O)c1ccccc1
45 | 206 to 208 °C | Cc1ccc(CS(=O)c2nc3cc4c(cc3[nH]2)OC(F)(F)O4)nc1 (configuration not stated)
46 | 164 to 165 °C | O=C1NC(=O)C(Cc2ccc(OCc3nc(-c4ccccc4)cs3)cc2)S1 (configuration not stated)
47 | 120 to 122 °C | CCOC(=O)c1c(O)c2cccnc2n(CC)c1=O
48 | 58 to 60 °C | CCOC(=O)CC(C)(O)c1ccc(-c2ccccc2)cc1 (configuration not stated)
49 | 190 to 191 °C | Cn1ncc(C(=O)Nc2cc(Cl)ccc2Cl)c1N
50 | 133 °C | COC(=O)c1ccc(Cc2cc3cc(Cl)ccc3n2S(=O)(=O)N2CCCCC2)cc1
51 | 61 to 63 °C | CC(=O)c1nccc(-c2ccc(Oc3ccc(F)cc3)cc2)n1
52 | 102 to 104 °C | CC(COc1ccc(O)c(C(N)=O)c1)NCc1ccccc1 (configuration not stated)

Row | melting point | SMILES
53 | 58 to 60 °C | CCOC(=O)c1c(OCC)ccn1C(=O)n1cccc1C(=O)O
54 | 142 to 147 °C | CCOC(=O)Cn1cnc2c(N3CCOCC3)nc(NC(=O)C3CCCCC3)nc21
55 | 194 °C | O=C(Nc1cccc2[nH]ccc12)c1ccc(Cl)cc1OCC1CO1 (configuration not stated)
56 | 146 to 147 °C | CCCCCc1c(/C=C/C(=O)O)oc2cc(OC)ccc12
57 | 180 to 181 °C | Cc1ccc(Cl)c(Nc2ccccc2-c2nnco2)c1Cl
58 | 178 to 180 °C | CC1(C)CCC(C)(C)c2cc(CC#Cc3ccc(C(=O)O)c(O)c3)ccc21
59 | 228 to 229 °C | CC(C)Nn1c(CO)nc2c(N)nc3ccccc3c21
60 | 95 °C | CC1(C)Cc2cccc(CCN3CCN(c4nsc5ccccc45)CC3)c2NC1=O
61 | 159 to 160 °C | CNS(=O)(=O)c1cc2c(c(C(=O)OC)c1)OCCO2
62 | 125 to 126 °C | COC(=O)c1ccc(C(=O)c2ccc(C)cc2)cc1
63 | 161 to 162 °C | CCOC(=O)c1sc2nc(C(C)C)ccc2c1N
64 | 83 to 84 °C | O=C(NCCOc1ccc(CC(Oc2ccccc2)C(=O)O)cc1Br)c1ccc(-c2ccccn2)cc1 (configuration not stated)
65 | 134 to 135 °C | Cc1ccc2oc(C(O)[C@H](C)NC(=O)OCc3ccccc3)nc2c1 (some centres not stated)
66 | 233 to 235 °C | Cc1cc(CCC(=O)O)cc(-c2nc(=O)c3ccccc3s2)n1
67 | 206 to 208 °C | Cc1c(S(C)(=O)=O)c2cccc(Cl)c2n1CC1=NCCN1
68 | 80.6 °C | CCNc1cccc2c1OC1(CC1)C2=O
69 | 125 to 126 °C | COc1ccc(Cl)cc1C(=O)NC(C)Cc1ccc(CCC(=O)O)cc1 (configuration not stated)
70 | 332 °C | O=C1c2ccccc2C(=O)c2c1oc1c2ccc2ccc(O)cc21
71 | 106 °C | CCN(CC)C(=O)c1cc(-c2cccc([N+](=O)[O-])c2)c2sccc2c1
72 | 197 to 198 °C | CO[C@@H](Cc1ccc(OCCc2nc(-c3cc(C)cc(C)c3)oc2C)c2ccccc12)C(=O)O
